We go through 3 molecules from patent US10662100B2, “Chlorination-UV process for decomposition and detoxification of microcystin-LR” (priority 2016, dated 2020).

Data set [1] can be described thus: Chlorination of MC-LR, Total MC-LR by HPLC. Particulars: pH 7.78. In kind it is physicochemical. The method, then: (§1) Free chlorine and MC-LR solutions were freshly prepared before each experiment. The initial MC-LR concentration was 2.00×10^−6 mol/L (2.00 mg/L). The pH of MC-LR solutions before addition of chlorine was 7.78. Initial MC-LR decomposition experiments were conducted in unbuffered solutions in order to mitigate against participation of buffers and other inorganic ions in the reactions; pH measurements were not conducted after initiation of the reactions due to limited reaction volumes. In experiments that were designed to examine the effects of pH on MC-LR behavior, 10 mM phosphate buffer was added into MC-LR solution. The pH of solution was adjusted to 6.5, 7.5, and 8.5 by addition of 50 mM sulfuric acid or 100 mM sodium hydroxide.
(§2) […]. […] Pre-chlorinated samples were then collected in headspace-free, gas-tight containers for subsequent UV irradiation at a characteristic wavelength of 254 nm using a flat-plate collimated beam.
A high-performance liquid chromatography (HPLC) system (Surveyor, Thermo Scientific, FL, U.S.) equipped with an Acclaim PepMap100 C18 column (250 mm×1.0 mm I.D., 5 μm particle size) was used to measure MC-LR concentration (Merel et al., (2009) Chemosphere 74: 832-839). The HPLC mobile phase was CH3CN/H2O/TFA (60:40:0.1). Sample injection volumes were 20 μL with a flow rate of 1.0 mL/min. Detection was performed using a photodiode array at 238 nm. […]

The nature of data set [2]: UV254 photolysis and chlorine/UV process for MC-LR decomposition. In kind it is physicochemical. The method, then:
as §1, §2
Incident UV254 irradiance was 1.00×10^−4 W/cm^2, as measured by a calibrated radiometer (IL1700, International Light Technologies, Peabody, Mass., U.S.). UV254 doses applied in the experiments ranged from 0 to 720 mJ/cm^2 for exposure times ranging from 0 to 120 min. The actual UV254 doses delivered to the samples would have been slightly lower than these values because of the effects of reflection and absorbance, which were not accounted for. The collimated beam system used in these experiments has been described previously. Water samples were collected periodically for determination of MC-LR concentration and cytotoxicity, as described below. All experiments were conducted in triplicate and the values were expressed as mean±standard deviation (SD) from the replicate measurements.
A high-performance liquid chromatography (HPLC) system (Surveyor, Thermo Scientific, FL, U.S.) equipped with an Acclaim PepMap100 C18 column (250 mm×1.0 mm I.D., 5 μm particle size) was used to measure MC-LR concentration (Merel et al., (2009) Chemosphere 74: 832-839). The HPLC mobile phase was CH3CN/H2O/TFA (60:40:0.1). […]

A further data set has as its system Hep3B cells. The format is cell-based, human.
In a further data set the test system is NIH3T3 cells. The format is cell-based, mouse.
The conditions of data set [3]: cited from earlier work.
For data set [4] the following is noted: 254 nm; cited from earlier work.

Values joined by “and” are separate entries in the source; they are usually repeats but may differ in a detail not shown here. Identical values can stand only once. Like-named read-outs stand apart in the source and are kept apart here. Starred links: 1 amine or outer side, 2 acyl side, 3 side chain; linkers in the order of their positions; H or OH if unused. Positions of bridges follow the written chain, without caps; N, C: chain ends. Non-standard residues stand in square brackets, D forms with d. Residues, ends and D or L forms follow the SMILES beside them. Adda = CO[C@@H](Cc1ccccc1)[C@@H](C)/C=C(C)/C=C/[C@H](N[*:1])[C@H](C)C(=O)[*:2]; dAsp(3S-Me) = C[C@H](C(=O)[*:3])[C@@H](N[*:1])C(=O)[*:2]; d(γGlu) = O=C(O)[C@@H](CCC(=O)[*:2])N[*:1]; NMeDha = C=C(NC)C(=O)O

On to `C=C1C(=O)N[C@H](C)C(=O)N[C@@H](CC(C)C)C(=O)N[C@@H](C(=O)O)[C@H](C)C(=O)N[C@@H](CCCNC(=N)N)C(=O)N[C@@H](/C=C/C(C)=C/[C@H](C)[C@H](Cc2ccccc2)OC)[C@H](C)C(=O)N[C@@H](C(=O)O)CCC(=O)N1C` [MC-LR] (R[Adda][d(γGlu)][NMeDha][dA]L[dAsp(3S-Me)]-OH; lactam N-7), for which the “apparent second-order rate constant for chlorination of MC-LR” value in data set [1] was 44.5 M⁻¹ s⁻¹; in data set [3] (pH 6.1) it was 127.8 M⁻¹ s⁻¹; in data set [3] (pH 7), 91.5 M⁻¹ s⁻¹; in data set [3] (pH 8), 33.1 M⁻¹ s⁻¹. Further, in data set [1], the “concentration of MC-LR over time” value was “remained essentially constant”. Moreover, the MC-LR decomposition in data set [2] (pH 6.5) stood at 64%; in data set [2] (pH 8.5), 83%. In data set [2] (pH 7.78), the “photodecay constant (pseudo first-order)” value is 0.000146 s⁻¹ and 0.000169 s⁻¹ and 0.000179 s⁻¹ and 0.000223 s⁻¹. In addition, the “change of cell viability resulting from UV254 exposure alone” value in the data set with Hep3B cells is “modest increase”. Also, the “decrease of cell viability” value in the data set with Hep3B cells was “up to 89%”; in the data set with NIH3T3 cells, “up to 76%”. Besides, the “viability of Hep3B cells” value with Hep3B cells is “roughly 50%”. Moreover, the “relative cell viability of Hep3B” value was 60% in the data set on Hep3B cells (pH 6.5) and “roughly 80%” with Hep3B cells (pH 8.5).
`CN1CC(=O)NC1=N` [creatinine]: the “quantum yield Φ254 for photodegradation” value in data set [4] was 0.011±0.002 mol/E.
As to N-chloro-creatinine, in data set [4], the “molar absorptivity ε254” value was 3911 M⁻¹ cm⁻¹ and the “quantum yield Φ254 for photodegradation” value was 0.144±0.011 mol/E.
